Values joined by “and” are separate entries in the source; they are usually repeats but may differ in a detail not shown here. Identical values can stand only once. Inconclusive results and toxic doses are left out. How the source made its calls: active means survival T/C of 150% or more; inactive means T/C below 125% in these data.
Tested on: CD2F1 mice, L1210 leukemia ip, survival T/C
Experiment: NCI In Vivo Anticancer Drug Screen. Data for tumor model L1210 Leukemia (intraperitoneal) in CD2F1 (CDF1) mice
Settings: higher = longer survival
Outline: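 Antitumor effect is scored in animals hosting a serially transplanted tumor. Values compare compound-dosed animals against vehicle-only controls as a simple quotient.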

[1] = endpoint: mean survival time, dose: 50.0 mg/kg/injection, schedule: Q01DX009 (ip), vehicle: saline with Tween-80
[2] = endpoint: mean survival time, dose: 100.0 mg/kg/injection, schedule: Q01DX009 (ip), vehicle: saline with Tween-80
[3] = endpoint: mean survival time, dose: 200.0 mg/kg/injection, schedule: Q01DX009 (ip), vehicle: saline with Tween-80
[4] = endpoint: mean survival time, dose: 100.0 mg/kg/injection, schedule: Q01DX001 (ip), vehicle: saline
[5] = endpoint: mean survival time, dose: 200.0 mg/kg/injection, schedule: Q01DX001 (ip), vehicle: saline
[6] = endpoint: mean survival time, dose: 400.0 mg/kg/injection, schedule: Q01DX001 (ip), vehicle: saline
[7] = endpoint: mean survival time, dose: 100.0 mg/kg/injection, schedule: Q04DX003 (ip), vehicle: saline with Tween-80
[8] = endpoint: mean survival time, dose: 200.0 mg/kg/injection, schedule: Q04DX003 (ip), vehicle: saline with Tween-80
[9] = endpoint: mean survival time, dose: 400.0 mg/kg/injection, schedule: Q04DX003 (ip), vehicle: saline with Tween-80
[10] = endpoint: mean survival time, dose: 25.0 mg/kg/injection, schedule: Q04DX003 (ip), vehicle: saline with Tween-80
[11] = endpoint: mean survival time, dose: 50.0 mg/kg/injection, schedule: Q04DX003 (ip), vehicle: saline with Tween-80

Measured: T/C

C=C(C)CC(O)CCCCCC (stereo unspecified)
inactive: [1] 98 % of control | [2] 110 % of control | [3] 107 % of control

CC=C(C(=O)OCC)C(=O)OCC
inactive: [4] 95 % of control | [5] 98 % of control | [6] 107 % of control

COc1ccc(OCC(O)CO)cc1 (stereo unspecified)
inactive: [4] 102 % of control | [5] 102 % of control | [6] 97 % of control

NCCN1CCCC1
inactive: endpoint: mean survival time, dose: 100.0 mg/kg/injection, schedule: Q04DX002 (ip), vehicle: saline 96 % of control | endpoint: mean survival time, dose: 200.0 mg/kg/injection, schedule: Q04DX002 (ip), vehicle: saline 111 % of control | endpoint: mean survival time, dose: 400.0 mg/kg/injection, schedule: Q04DX002 (ip), vehicle: saline 103 % of control

O=S(=O)(Nc1ccc2c3c(cccc13)CC2)c1ccccc1
inactive: [7] 96 % of control | [8] 96 % of control | [9] 98 % of control

O=C(C=P(CC[PH+](Cc1ccccc1)Cc1ccccc1)(Cc1ccccc1)Cc1ccccc1)c1ccccc1.[Cl][Pd][Cl]
inactive: endpoint: mean survival time, dose: 3.13 mg/kg/injection, schedule: Q04DX003 (ip), vehicle: distilled water + Tween-80 98 % of control | endpoint: mean survival time, dose: 6.25 mg/kg/injection, schedule: Q04DX003 (ip), vehicle: distilled water + Tween-80 100 % of control | endpoint: mean survival time, dose: 12.5 mg/kg/injection, schedule: Q04DX003 (ip), vehicle: distilled water + Tween-80 104 % of control | endpoint: mean survival time, dose: 25.0 mg/kg/injection, schedule: Q04DX003 (ip), vehicle: distilled water + Tween-80 102 % of control | endpoint: mean survival time, dose: 50.0 mg/kg/injection, schedule: Q04DX003 (ip), vehicle: distilled water + Tween-80 96 % of control | endpoint: mean survival time, dose: 100.0 mg/kg/injection, schedule: Q04DX003 (ip), vehicle: distilled water + Tween-80 96 % of control | endpoint: mean survival time, dose: 200.0 mg/kg/injection, schedule: Q04DX003 (ip), vehicle: distilled water + Tween-80 96 % of control

COC(=O)/C(=C1/OC(=O)C(c2ccccc2)=C1O)c1ccccc1
inactive: [10] 91 % of control | [11] 100 % of control | [7] 105 % of control

CCOC(=O)Nc1cc2c(c(N)n1)N=C(CN(C)c1ccc(OC)cc1)CN2
inactive: endpoint: mean survival time, dose: 0.78 mg/kg/injection, schedule: Q01DX009 (ip), vehicle: Klucel (hydroxypropylcellulose) (HPC) 118 % of control

O=C1c2ccccc2C(=O)N1CC/C=C/c1ccc([N+](=O)[O-])cc1Cl
inactive: [7] 98 % of control | [8] 91 % of control | [9] 100 % of control

CC(CC(O)(C(F)(F)F)C(F)(F)F)OC(=O)Nc1ccc(Cl)c(Cl)c1 (stereo unspecified)
inactive: endpoint: mean survival time, dose: 100.0 mg/kg/injection, schedule: Q04DX003 (ip), vehicle: Klucel (hydroxypropylcellulose) (HPC) 96 % of control | endpoint: mean survival time, dose: 200.0 mg/kg/injection, schedule: Q04DX003 (ip), vehicle: Klucel (hydroxypropylcellulose) (HPC) 101 % of control | endpoint: mean survival time, dose: 400.0 mg/kg/injection, schedule: Q04DX003 (ip), vehicle: Klucel (hydroxypropylcellulose) (HPC) 101 % of control

COc1c(/C=C/CO)cc2c(c1OC)OCO2
inactive: [7] 95 % of control | [8] 102 % of control | [9] 102 % of control

[I][Pt+2][I].[NH-]CC[NH-]
inactive: endpoint: mean survival time, dose: 20.0 mg/kg/injection, schedule: Q04DX003 (ip), vehicle: water 115 % of control | endpoint: mean survival time, dose: 40.0 mg/kg/injection, schedule: Q04DX003 (ip), vehicle: water 116 % of control | endpoint: mean survival time, dose: 80.0 mg/kg/injection, schedule: Q04DX003 (ip), vehicle: water 120 % of control | endpoint: mean survival time, dose: 160.0 mg/kg/injection, schedule: Q04DX003 (ip), vehicle: water 115 % of control | endpoint: mean survival time, dose: 320.0 mg/kg/injection, schedule: Q04DX003 (ip), vehicle: water 93 % of control

CC(C)(C)CC1(C)NC(=O)NC1=O (stereo unspecified)
inactive: [4] 100 % of control | [5] 97 % of control | [6] 100 % of control

Nc1nc2c(C(=O)N3CCCC3)nnn2c2ccccc12
inactive: endpoint: median survival time, dose: 6.25 mg/kg/injection, schedule: Q01DX009 (ip), vehicle: saline with Tween-80 100 % of control | endpoint: median survival time, dose: 12.5 mg/kg/injection, schedule: Q01DX009 (ip), vehicle: saline with Tween-80 98 % of control | endpoint: median survival time, dose: 25.0 mg/kg/injection, schedule: Q01DX009 (ip), vehicle: saline with Tween-80 97 % of control | endpoint: median survival time, dose: 50.0 mg/kg/injection, schedule: Q01DX009 (ip), vehicle: saline with Tween-80 95 % of control | endpoint: median survival time, dose: 100.0 mg/kg/injection, schedule: Q01DX009 (ip), vehicle: saline with Tween-80 95 % of control

O.O=C(O)C(Cc1ccc(O)cc1)N=Cc1c(O)cncc1COP(=O)(O)O.[Cu] (stereo unspecified)
inactive: endpoint: mean survival time, dose: 12.5 mg/kg/injection, schedule: Q01DX001 (ip), vehicle: saline with Tween-80 95 % of control | endpoint: mean survival time, dose: 25.0 mg/kg/injection, schedule: Q01DX001 (ip), vehicle: saline with Tween-80 103 % of control | endpoint: mean survival time, dose: 50.0 mg/kg/injection, schedule: Q01DX001 (ip), vehicle: saline with Tween-80 98 % of control

Cc1cc(F)ccc1[NH-].Cc1cc(F)ccc1[NH-].[Cl][Pt+2][Cl]
inactive: endpoint: mean survival time, dose: 12.5 mg/kg/injection, schedule: Q04DX003 (ip), vehicle: saline with Tween-80 106 % of control | [10] 101 % of control | [11] 91 % of control | [7] 95 % of control | [8] 89 % of control

COC(=N)Cc1ccc(OC)c(OC)c1
inactive: [7] 102 % of control | [8] 96 % of control | [9] 94 % of control

COc1cc(OC)c(NC(=O)OCCOc2ccc(Br)cc2)cc1Cl
inactive: [1] 90 % of control | [2] 90 % of control | [3] 97 % of control

C1CCC2[N-]CCCC2C1.C1CCC2[N-]CCCC2C1.[Br][Pt+2][Br] (stereo unspecified)
inactive: endpoint: median survival time, dose: 3.12 mg/kg/injection, schedule: Q04DX003 (ip), vehicle: saline 105 % of control | endpoint: median survival time, dose: 6.25 mg/kg/injection, schedule: Q04DX003 (ip), vehicle: saline 117 % of control | endpoint: median survival time, dose: 12.5 mg/kg/injection, schedule: Q04DX003 (ip), vehicle: saline 114 % of control | endpoint: median survival time, dose: 25.0 mg/kg/injection, schedule: Q04DX003 (ip), vehicle: saline 103 % of control | endpoint: median survival time, dose: 50.0 mg/kg/injection, schedule: Q04DX003 (ip), vehicle: saline 102 % of control | endpoint: median survival time, dose: 100.0 mg/kg/injection, schedule: Q04DX003 (ip), vehicle: saline 104 % of control | endpoint: median survival time, dose: 200.0 mg/kg/injection, schedule: Q04DX003 (ip), vehicle: saline 95 % of control

CSc1sc2ccccc2[n+]1C
inactive: endpoint: mean survival time, dose: 25.0 mg/kg/injection, schedule: Q01DX009 (ip), vehicle: saline 100 % of control | endpoint: mean survival time, dose: 50.0 mg/kg/injection, schedule: Q01DX009 (ip), vehicle: saline 110 % of control

CCCCOC(=O)CCC(NC(=O)c1ccc(N(C)Cc2cnc3nc(N)nc(N)c3n2)cc1)C(=O)OCCCC (stereo unspecified)
inactive: endpoint: mean survival time, dose: 0.09 mg/kg/injection, schedule: Q01DX009 (ip), vehicle: distilled water + Tween-80 108 % of control | endpoint: mean survival time, dose: 0.19 mg/kg/injection, schedule: Q01DX009 (ip), vehicle: distilled water + Tween-80 113 % of control and 91 % of control | endpoint: mean survival time, dose: 0.75 mg/kg/injection, schedule: Q01DX009 (ip), vehicle: distilled water + Tween-80 108 % of control | endpoint: mean survival time, dose: 1.5 mg/kg/injection, schedule: Q01DX009 (ip), vehicle: distilled water + Tween-80 89 % of control

Nc1cccc(=O)[nH]1
inactive: endpoint: mean survival time, dose: 12.5 mg/kg/injection, schedule: Q01DX009 (ip), vehicle: suspension in saline 96 % of control | endpoint: mean survival time, dose: 25.0 mg/kg/injection, schedule: Q01DX009 (ip), vehicle: suspension in saline 96 % of control and 104 % of control | endpoint: mean survival time, dose: 50.0 mg/kg/injection, schedule: Q01DX009 (ip), vehicle: suspension in saline 95 % of control and 96 % of control | endpoint: mean survival time, dose: 100.0 mg/kg/injection, schedule: Q01DX009 (ip), vehicle: suspension in saline 90 % of control and 96 % of control | endpoint: mean survival time, dose: 200.0 mg/kg/injection, schedule: Q01DX009 (ip), vehicle: suspension in saline 102 % of control and 107 % of control | endpoint: mean survival time, dose: 400.0 mg/kg/injection, schedule: Q01DX009 (ip), vehicle: suspension in saline 104 % of control

CC(C)CC#N
inactive: [2] 100 % of control | [7] 101 % of control | [8] 104 % of control | [9] 104 % of control

COc1cccc2c1C(=O)c1c(O)c3c(c(O)c1C2=O)C[C@@](O)(/C(CO)=N/NC(=O)c1ccc(Cl)c(Cl)c1)C[C@@H]3OC1CC(N)C(O)C(C)O1 (stereo partly specified)
inactive: endpoint: mean survival time, dose: 1.0 mg/kg/injection, schedule: Q01DX009 (ip), vehicle: water 86 % of control | endpoint: mean survival time, dose: 2.0 mg/kg/injection, schedule: Q01DX009 (ip), vehicle: water 116 % of control and 89 % of control | endpoint: mean survival time, dose: 4.0 mg/kg/injection, schedule: Q01DX009 (ip), vehicle: water 92 % of control | endpoint: mean survival time, dose: 8.0 mg/kg/injection, schedule: Q01DX009 (ip), vehicle: water 92 % of control | endpoint: mean survival time, dose: 32.0 mg/kg/injection, schedule: Q01DX009 (ip), vehicle: water 113 % of control and 111 % of control
252 % of control and 97 % of control: endpoint: mean survival time, dose: 16.0 mg/kg/injection, schedule: Q01DX009 (ip), vehicle: water

— PubChem BioAssay AID256 (DTP/NCI, 2004)
